Assay results from ChEMBL document CHEMBL1201862, “PubChem BioAssay data set” (2004).
Counter-ions that a name gives are not always drawn.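 Compound exposure: 48 hours, 5 concentrations, 96-well plates. GI50 marks 50% less growth.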 Active and inactive are the calls of the source. Rule as the data show it: active = GI50 up to about 1.1 µM and inactive = higher.

Tests used:
Assay in all cases: NCI-60 cell line screen, 48 h
SK-MEL-2 = system: SK-MEL-2
A498 = system: A498
M14 = system: M14
UO-31 = system: UO-31
NCI-H460 = system: NCI-H460
HCT-15 = system: HCT-15
SNB-19 = system: SNB-19
KM12 = system: KM12
OVCAR-3 = system: OVCAR-3
HOP-62 = system: HOP-62
U-251 = system: U-251
SN12C = system: SN12C
UACC-62 = system: UACC-62
SK-MEL-5 = system: SK-MEL-5
CAKI-1 = system: CAKI-1
SF-268 = system: SF-268
RPMI-8226 = system: RPMI-8226

| SMILES | GI50 (SK-MEL-2) | GI50 (A498) | GI50 (M14) | GI50 (UO-31) | GI50 (NCI-H460) | GI50 (HCT-15) | GI50 (SNB-19) | GI50 (KM12) | GI50 (OVCAR-3) | GI50 (HOP-62) | GI50 (U-251) | GI50 (SN12C) | GI50 (UACC-62) | GI50 (SK-MEL-5) | GI50 (CAKI-1) | GI50 (SF-268) | GI50 (RPMI-8226) |
| --- | --- | --- | --- | --- | --- | --- | --- | --- | --- | --- | --- | --- | --- | --- | --- | --- | --- |
| O=c1[nH]c(C2CCCCC2)nc2c(Cl)cccc12 | > 100 µM (inactive) | > 100 µM (inactive) | > 100 µM (inactive) | > 100 µM (inactive) | > 100 µM (inactive) | > 100 µM | > 100 µM (inactive) | > 100 µM (inactive) | > 100 µM (inactive) | > 100 µM (inactive) | > 100 µM (inactive) | > 100 µM (inactive) | > 100 µM (inactive) | > 100 µM (inactive) | > 100 µM (inactive) | > 100 µM (inactive) |  |
| O=C(Nc1ccccc1[N+](=O)[O-])/C(=N/Nc1cccc(Cl)c1)c1c(O)c2ccccc2oc1=O | > 100 µM (inactive) | > 100 µM (inactive) | > 100 µM (inactive) | > 100 µM (inactive) | 38.5 µM (inactive) | 58.1 µM | > 100 µM (inactive) | > 100 µM (inactive) | 35.4 µM (inactive) |  |  |  | 42.2 µM (inactive) | 49.4 µM (inactive) | > 100 µM (inactive) | 28.9 µM (inactive) |  |
| CCCCN(CC)C(=O)C(=O)Cc1nc2ccc(C(=O)c3ccccc3)cc2nc1O |  | > 100 µM (inactive) | > 100 µM (inactive) | 33.3 µM (inactive) | 13.6 µM (inactive) | 67.1 µM | 98.6 µM (inactive) | > 100 µM (inactive) | > 100 µM (inactive) | > 100 µM (inactive) | 73.1 µM (inactive) | > 86.1 µM (inactive) | 66.5 µM (inactive) | 50.1 µM (inactive) | 54.3 µM (inactive) | > 100 µM (inactive) | 27 µM (inactive) |
| COC(=O)OCC1OC(N2C(=O)NC(=O)C(I)C2N=[N+]=[N-])CC1OC(=O)OC (stereo not given) |  |  | > 100 µM (inactive) | > 100 µM (inactive) | > 100 µM (inactive) | > 100 µM | > 100 µM (inactive) | > 100 µM (inactive) | > 100 µM (inactive) | > 100 µM (inactive) | > 100 µM (inactive) | > 100 µM (inactive) | > 100 µM (inactive) | > 100 µM (inactive) | > 100 µM (inactive) | > 100 µM (inactive) | > 100 µM (inactive) |
| O=C1CSc2ccncc2N1 | > 100 µM (inactive) | > 100 µM (inactive) | > 100 µM (inactive) | > 100 µM (inactive) | > 100 µM (inactive) | > 100 µM | 8.93 µM (inactive) |  | > 100 µM (inactive) | > 100 µM (inactive) | > 100 µM (inactive) | > 100 µM (inactive) | > 100 µM (inactive) | > 100 µM (inactive) | > 100 µM (inactive) | > 100 µM (inactive) |  |
| Nc1nc(NCCO)c(N=O)c(=O)[nH]1 | > 100 µM (inactive) | > 100 µM (inactive) | > 100 µM (inactive) | > 100 µM (inactive) | > 100 µM (inactive) | > 100 µM |  | > 100 µM (inactive) | > 100 µM (inactive) | > 100 µM (inactive) | > 100 µM (inactive) | > 100 µM (inactive) | > 100 µM (inactive) | > 100 µM (inactive) | > 100 µM (inactive) | > 100 µM (inactive) | > 100 µM (inactive) |
| COC1CC(OC)C(O)C(CO)O1 (stereo not given) | > 100 µM (inactive) |  | > 100 µM (inactive) | > 100 µM (inactive) | > 100 µM (inactive) | > 100 µM |  | > 100 µM (inactive) | > 100 µM (inactive) | > 100 µM (inactive) | > 100 µM (inactive) | > 100 µM (inactive) | > 100 µM (inactive) | > 100 µM (inactive) |  |  |  |
| O=C(Cc1c(C(=O)Nc2ccccc2)sc(C(=O)Nc2ccccc2)c1CC(=O)Nc1ccccc1)Nc1ccccc1 |  | > 100 µM (inactive) | > 100 µM (inactive) | > 100 µM (inactive) | > 100 µM (inactive) |  | > 100 µM (inactive) | > 100 µM (inactive) | > 100 µM (inactive) | > 100 µM (inactive) | > 100 µM (inactive) | > 100 µM (inactive) | > 100 µM (inactive) | > 100 µM (inactive) | > 100 µM (inactive) | 0.446 µM (active) | > 100 µM (inactive) |
| CC(C)(C)c1cc(C(O)(C(F)(F)F)C(F)(F)F)c2c(c1)C(C(F)(F)F)(C(F)(F)F)OC(C(C)(C)C)N2 (stereo not given) | 2.55 µM (inactive) |  | 5.13 µM (inactive) | 7.55 µM (inactive) | 3.27 µM (inactive) | 2.99 µM | 5.79 µM (inactive) | 3.65 µM (inactive) | 2.58 µM (inactive) |  | 3.61 µM (inactive) | 3.3 µM (inactive) | 3.56 µM (inactive) | 1.57 µM (inactive) | 3.12 µM (inactive) |  | 1.95 µM (inactive) |
| NC(=O)NNC(=O)NC12CC3CC(CC(C3)C1)C2 | > 100 µM (inactive) | > 100 µM (inactive) | > 100 µM (inactive) | > 100 µM (inactive) | > 100 µM (inactive) | > 100 µM | > 100 µM (inactive) | > 100 µM (inactive) | > 100 µM (inactive) | > 100 µM (inactive) | > 100 µM (inactive) | > 100 µM (inactive) | > 100 µM (inactive) | > 100 µM (inactive) | > 100 µM (inactive) | > 100 µM (inactive) |  |
| CCOC(=O)C12CCCC1(O)N(NC(=O)c1ccccc1)C(C)=C2C(=O)OC (stereo not given) | > 100 µM (inactive) | > 100 µM (inactive) | > 100 µM (inactive) | > 100 µM (inactive) | > 100 µM (inactive) | > 100 µM | > 100 µM (inactive) | > 100 µM (inactive) | > 100 µM (inactive) | > 100 µM (inactive) | > 100 µM (inactive) | > 100 µM (inactive) | > 100 µM (inactive) |  | > 100 µM (inactive) | > 100 µM (inactive) | > 100 µM (inactive) |
| COC(=O)/C=C(\C(=O)OC)c1c2c3c(cc(OC)c(OC)c3c3ccccc13)CCN2C | 35.4 µM (inactive) |  | 78.7 µM (inactive) | 46.2 µM (inactive) | 35.9 µM (inactive) | 22.3 µM | 35.5 µM (inactive) | 36.1 µM (inactive) | 28.2 µM (inactive) | 25.1 µM (inactive) | 39 µM (inactive) | 58.6 µM (inactive) | 24.2 µM (inactive) | 13.8 µM (inactive) |  | > 100 µM (inactive) | 26.8 µM (inactive) |
| CC1CC[P+](c2ccccc2)(c2ccccc2)CC1 | 77.3 µM (inactive) | > 100 µM (inactive) | 88.1 µM (inactive) | > 100 µM (inactive) | > 100 µM (inactive) | > 100 µM | 92.3 µM (inactive) | 92.5 µM (inactive) | 46.2 µM (inactive) | > 100 µM (inactive) | 30.5 µM (inactive) | > 100 µM (inactive) | 58.5 µM (inactive) | 20.8 µM (inactive) |  |  | 21.2 µM (inactive) |
| COc1ccc2c(c1)C(O)(C(F)(F)F)c1cc(C(=O)C(F)(F)F)c3ccccc3c1N2 (stereo not given) | 12.2 µM (inactive) | 14.3 µM (inactive) | 5.33 µM (inactive) | 9.86 µM (inactive) | 8.89 µM (inactive) | 7.35 µM | 16 µM (inactive) | 4.35 µM (inactive) | 14.9 µM (inactive) |  |  |  | 4.46 µM (inactive) | 13.7 µM (inactive) | 13.7 µM (inactive) | 10.2 µM (inactive) |  |
| COc1cc2[nH]c3c(c2cc1OC)CCN[C@]31CC[C@]2(CC3c4c(cc(OC)c(O)c42)CCN3C)C[C@H]1OC (stereo not given in full) |  | 24.8 µM (inactive) | 15.7 µM (inactive) | > 10 µM (inactive) | 23.8 µM (inactive) | 18.8 µM | 34.8 µM (inactive) | 17.7 µM (inactive) | 21.2 µM (inactive) | 21.8 µM (inactive) | 18 µM (inactive) | 21 µM (inactive) | 25 µM (inactive) | 15 µM (inactive) | 34.4 µM (inactive) | 25.5 µM (inactive) | 15.2 µM (inactive) |
| O=C1Cc2c([nH]c3ccccc23)-c2cc(Br)ccc2N1 | > 100 µM (inactive) | > 100 µM (inactive) | > 100 µM (inactive) | > 100 µM (inactive) | > 100 µM (inactive) | > 100 µM | > 100 µM (inactive) | > 100 µM (inactive) | > 100 µM (inactive) | > 100 µM (inactive) | > 100 µM (inactive) | > 100 µM (inactive) |  | > 100 µM (inactive) | > 100 µM (inactive) | > 100 µM (inactive) | > 100 µM (inactive) |
| COc1ccc2[nH]c3c(cnn4cnnc34)c2c1 | > 100 µM (inactive) |  | > 100 µM (inactive) | > 100 µM (inactive) | > 100 µM (inactive) | > 100 µM | > 100 µM (inactive) | > 100 µM (inactive) | > 100 µM (inactive) | > 100 µM (inactive) | > 100 µM (inactive) | > 100 µM (inactive) | > 100 µM (inactive) | 0.262 µM (active) | > 100 µM (inactive) | > 100 µM (inactive) | > 100 µM (inactive) |
| COC(=O)C1=CO[C@@H](C)[C@@H]2Cn3ccc4c5ccccc5nc-4c3C[C@H]12 [ALSTONINE HYDROCHLORIDE] | > 100 µM (inactive) | > 100 µM (inactive) | > 100 µM (inactive) | > 100 µM (inactive) | > 100 µM (inactive) | > 100 µM | > 100 µM (inactive) |  | 87.1 µM (inactive) | > 100 µM (inactive) | > 100 µM (inactive) | > 100 µM (inactive) | > 100 µM (inactive) | 61.2 µM (inactive) |  | > 100 µM (inactive) | 84.3 µM (inactive) |
